PMC7383931, “Novel Thienopyrimidine Inhibitors of Leishmania N-Myristoyltransferase with On-Target Activity in Intracellular Amastigotes” (Journal of Medicinal Chemistry, 2020)
Where “and” joins values, the source holds several entries; their conditions need not be identical. Equal values may be shown once. Read-outs that look alike come from different tables or passages of the source.

How the values were obtained:
[1] = test system: bone-marrow-derived macrophages (BMDM); assay: Alamar blue-based assay, macrophage toxicity; format: cell-based, BALB/c mice; settings: for BMDM TC50: toxicity against bone marrow derived macrophages; for Alamar Blue Assay nAUC: toxicity against bone-marrow-derived macrophages, normalized area under the curve
Protocol: . Due to the steep slope of the toxicity profile and the correspondingly low accuracy of the CC50 values, the normalized area under the curve (nAUC) was used as the toxicity parameter (Figure 6A). […].
Macrophages (BMDM) were differentiated from the bone marrow of 6–8 week old female BALB/c mice, as described previously,[37] and maintained at 37 °C and 5% CO2 in DMEM (GIBCO) supplemented with 4 mM L-glutamine (GIBCO) and 4% L929-cell-conditioned medium. BMDMs were seeded at 4.2 × 10^4 cells per well in 96-well plates and adhered for at least 4 h. Subsequently, inhibitor concentrations were added for 72 h, followed by the addition of a 1/10 volume Alamar blue (Trek Diagnostics). Fluorescence was measured after 6 h as described above.

[2] = molecular target: T1, LmNMT (Leishmania major, UniProt Q4Q5S8); assay: CPM assay (fluorogenic NMT activity assay), LmNMT; format: biochemical; settings: 95% confidence interval in brackets; read-out: CPM Assay, IC50 (CI95) LmNMT
T1 sequence (Q4Q5S8 1-421): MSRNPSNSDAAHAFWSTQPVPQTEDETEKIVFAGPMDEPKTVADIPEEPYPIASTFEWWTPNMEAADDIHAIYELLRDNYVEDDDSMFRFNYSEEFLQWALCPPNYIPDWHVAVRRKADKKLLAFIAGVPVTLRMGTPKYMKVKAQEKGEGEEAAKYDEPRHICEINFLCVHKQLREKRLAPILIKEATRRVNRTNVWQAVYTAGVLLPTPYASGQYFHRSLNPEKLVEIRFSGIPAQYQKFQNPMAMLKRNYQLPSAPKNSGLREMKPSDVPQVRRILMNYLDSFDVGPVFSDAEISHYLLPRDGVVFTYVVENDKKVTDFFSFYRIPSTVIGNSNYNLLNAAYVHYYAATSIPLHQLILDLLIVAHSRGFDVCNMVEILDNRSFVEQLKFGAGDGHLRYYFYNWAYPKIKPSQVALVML

[3] = test system: intracellular amastigotes; design: method as in PMID 30380837; settings: cited from earlier work
[4] = test system: HsNMTs; design: method as in PMID 30380837; settings: versus Leishmania major (Lm) NMT; cited from earlier work
[5] = test system: NMT (protein myristoylation) in L. donovani amastigotes; format: cell-based; settings: in-gel fluorescence, varying inhibitor concentrations
[6] = molecular target: LdNMT (Leishmania donovani, UniProt D0AB09); assay: biochemical; settings: 95% confidence interval in brackets
[7] = test system: L. donovani amastigotes; assay: Alamar blue-based assay, L. donovani amastigotes; format: cell-based; settings: Leishmania donovani

Chain of LdNMT (D0AB09 entry or part of it): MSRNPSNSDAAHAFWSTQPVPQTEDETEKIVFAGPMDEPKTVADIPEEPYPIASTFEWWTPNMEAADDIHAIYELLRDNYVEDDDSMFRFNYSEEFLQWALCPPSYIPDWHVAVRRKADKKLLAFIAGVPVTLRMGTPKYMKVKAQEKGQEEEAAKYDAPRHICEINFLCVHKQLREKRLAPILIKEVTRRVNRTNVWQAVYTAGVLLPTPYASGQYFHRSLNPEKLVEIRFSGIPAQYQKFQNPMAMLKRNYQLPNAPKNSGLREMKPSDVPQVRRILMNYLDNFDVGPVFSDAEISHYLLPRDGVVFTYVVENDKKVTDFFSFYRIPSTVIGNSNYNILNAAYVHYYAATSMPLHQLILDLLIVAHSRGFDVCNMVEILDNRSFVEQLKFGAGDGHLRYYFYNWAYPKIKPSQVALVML

Question: What does the source list for `CN1CCC(N(C)c2nc(N(C)CCC#N)c3ccccc3n2)CC1` [Compound 3, 3-(Methyl(2-(methyl(1-methylpiperidin-4-yl)amino)quinazolin-4-yl)amino)propanenitrile]?
Answer: BMDM TC50 [1]: >100 µM; Alamar Blue Assay nAUC [1]: 1.04

Question: Which IC50 [2] does the source give for `CN1CCC(N(CCCO)c2nc(N(C)CCC#N)c3ccccc3n2)CC1` [Compound 30, 3-((2-((3-Hydroxypropyl)(1-methylpiperidin-4-yl)amino)quinazolin-4-yl)(methyl)amino)propanenitrile] here?
Answer: 19 µM and 18.8 µM

Question: With `CCN(C)c1nc(N(C)C2CCN(C)CC2)nc2ccsc12` [Compound 46, N^4-Ethyl-N^2,N^4-dimethyl-N^2-(1-methylpiperidin-4-yl)thieno[3,2-d]pyrimidine-2,4-diamine] as the compound, how does the “BMDM TC50” value [1] read?
Answer: >50 µM

Question: What about the “Alamar Blue Assay nAUC” value [1] of the same compound?
Answer: 1.05

Question: Which “BMDM TC50” value [1] does the source give for `CN(C)CCCN(C)c1nc(N(C)CCC#N)c2cc(Br)ccc2n1` [Compound 56, 3-((6-Bromo-2-((3-(dimethylamino)propyl)(methyl)amino)quinazolin-4-yl)(methyl)amino)propanenitrile] here?
Answer: >40 µM

Question: And the “Alamar Blue Assay nAUC” value [1]?
Answer: 1.3 and 1.28

Question: For `Cc1nn(C)c(C)c1N(C(F)F)S(=O)(=O)c1c(Cl)cc(CCCC2CCN(C)CC2)cc1Cl` [DDD100097], which EC50 [3] is on record?
Answer: 2.4 µM

Question: And the “selectivity over HsNMTs” value [4]?
Answer: 10 fold

Question: For `CN(CCC#N)c1nc(N(C)C2CCNC2)nc2cc(C(C)(C)C)sc12` (stereo not shown) [Compound 53, 3-((6-(tert-Butyl)-2-(methyl(pyrrolidin-3-yl)amino)thieno[3,2-d]pyrimidin-4-yl)(methyl)amino)propanenitrile], which “BMDM TC50” value [1] is on record?
Answer: >40 µM

Question: Which results are given for `CN1CCC(N(C)c2nc(N(C)CCC#N)c3ccccc3n2)C1` (stereo not shown) [Compound 26, 3-(Methyl(2-(methyl(1-methylpyrrolidin-3-yl)amino)quinazolin-4-yl)amino)propanenitrile]?
Answer: BMDM TC50 [1]: >50 µM; Alamar Blue Assay nAUC [1]: 1.03; effect on myristoylation [5]: significantly decreased myristoylation in a dose-dependent manner

Question: For `CN(C)CCCN(C)c1nc(N(C)CCC#N)c2sccc2n1` [Compound 2, 3-((2-((3-(Dimethylamino)propyl)(methyl)amino)thieno[3,2-d]pyrimidin-4-yl)(methyl)amino)propanenitrile], which IC50 ([6]; read-out: CPM Assay, IC50 (CI95) LdNMT) is on record?
Answer: 0.59 µM

Question: With `CN(CCC#N)c1nc(N(C)C2CCNCC2)nc2ccccc12` [Compound 23, 3-(Methyl(2-(methyl(piperidin-4-yl)amino)quinazolin-4-yl)amino)propanenitrile] as the compound, how does the “BMDM TC50” value [1] read?
Answer: >50 µM

Question: Which “BMDM TC50” value [1] does the source give for `CN(C)CCCN(C)c1nc(N(C)CCC(N)=O)c2sccc2n1` [Compound 36] here?
Answer: >50 µM

Question: Which EC50 ([7]; extracellular L. donovani amastigotes (Table S2), read-out: Ld Amastigotes EC50 (CI05)) does the source give for `CN1CCC(N(C)c2nc(N(C)CCC#N)c3sc(C(C)(C)C)cc3n2)CC1` [Compound 50, 3-((6-(tert-Butyl)-2-(methyl(1-methylpiperidin-4-yl)amino)thieno[3,2-d]pyrimidin-4-yl)(methyl)amino)propanenitrile] here?
Answer: 10.1 µM

Question: What about the EC50 ([7]; intracellular L. donovani amastigotes, read-out: Alamar Blue Assay EC50 (CI95)) of the same compound?
Answer: 10 µM

Question: For `CCN1CCC(N(C)c2nc(N(C)CCC#N)c3ccccc3n2)CC1` [Compound 24, 3-((2-((1-Ethylpiperidin-4-yl)(methyl)amino)quinazolin-4-yl)(methyl)amino)propanenitrile], which “BMDM TC50” value [1] is on record?
Answer: >50 µM

Question: With `CCN(C)c1nc(N(C)C2CCNCC2)nc2ccsc12` [Compound 47, N^4-Ethyl-N^2,N^4-dimethyl-N^2-(piperidin-4-yl)thieno[3,2-d]pyrimidine-2,4-diamine] as the compound, how does the “BMDM TC50” value [1] read?
Answer: >50 µM

Question: For `CN1CCC(N(C)c2nc(N3CCC[C@H]3CC#N)c3sccc3n2)CC1` [Compound 43, (S)-2-(1-(2-(Methyl(1-methylpiperidin-4-yl)amino)thieno[3,2-d]pyrimidin-4-yl)pyrrolidin-2-yl)acetonitrile], which “BMDM TC50” value [1] is on record?
Answer: >50 µM

Question: And the “Alamar Blue Assay nAUC” value [1]?
Answer: 1.08

Question: Which “BMDM TC50” value [1] does the source give for `CN(C)CCCN(C)c1nc(N(C)CCCO)c2sccc2n1` [Compound 35, 3-((2-((3-(Dimethylamino)propyl)(methyl)amino)thieno[3,2-d]pyrimidin-4-yl)(methyl)amino)propan-1-ol] here?
Answer: >50 µM

Question: Which results are given for `CN(CCC#N)c1nc(N(C)C2CCNCC2)nc2ccsc12` [Compound 10, 3-(Methyl(2-(methyl(piperidin-4-yl)amino)thieno[3,2-d]pyrimidin-4-yl)amino)propanenitrile]?
Answer: BMDM TC50 [1]: >50 µM; Alamar Blue Assay nAUC [1]: 1.05

Question: What does the source list for `CCN1CCC(N(C)c2nc(N(C)CCC#N)c3sccc3n2)CC1` [Compound 12, 3-(Methyl(2-(methyl(1-ethylpiperidin-4-yl)amino)thieno[3,2-d]pyrimidin-4-yl)amino)propanenitrile]?
Answer: BMDM TC50 [1]: >50 µM; Alamar Blue Assay nAUC [1]: 1.05

Question: For `CN(C)CCCN(C)c1nc(N2CCC[C@H]2CO)c2sccc2n1` [Compound 39, (S)-(1-(2-((3-(Dimethylamino)propyl)(methyl)amino)thieno[3,2-d]pyrimidin-4-yl)pyrrolidin-2-yl)methanol], which “BMDM TC50” value [1] is on record?
Answer: >50 µM

Question: What about the “Alamar Blue Assay nAUC” value [1] of the same compound?
Answer: 1.14

Question: With `COC[C@@H]1CCCN1c1nc(N(C)C2CCN(C)CC2)nc2ccsc12` [Compound 40, (S)-4-(2-(Methoxymethyl)pyrrolidin-1-yl)-N-methyl-N-(1-methylpiperidin-4-yl)thieno[3,2-d]pyrimidin-2-amine] as the compound, how does the “BMDM TC50” value [1] read?
Answer: >40 µM

Question: And the “Alamar Blue Assay nAUC” value [1]?
Answer: 1.06

Question: With `CN1CCC(N(C)c2nc(N(C)CCC#N)c3sccc3n2)CC1` [Compound 1, 3-(Methyl(2-(methyl(1-methylpiperidin-4-yl)amino)thieno[3,2-d]pyrimidin-4-yl)amino)propanenitrile] as the compound, how does the “BMDM TC50” value [1] read?
Answer: >100 µM

Question: And the “Alamar Blue Assay nAUC” value [1]?
Answer: 1.07

Question: And the effect on myristoylation [5]?
Answer: significantly decreased myristoylation in a dose-dependent manner

Question: With `CN(CCC#N)c1nc(N(CCCO)C2CCNCC2)nc2ccccc12` [Compound 29, 3-((2-((3-Hydroxypropyl)(piperidin-4-yl)amino)quinazolin-4-yl)(methyl)amino)propanenitrile] as the compound, how does the IC50 [2] read?
Answer: 15 µM and 15.3 µM

Question: For `CCN(C)c1nc(N(C)C2CCNCC2)nc2ccc(S(=O)(=O)Nc3c(C)nn(C)c3C)cc12` [Compound 65, 4-(Ethyl(methyl)amino)-2-(methyl(piperidin-4-yl)amino)-N-(1,3,5-trimethyl-1H-pyrazol-4-yl)quinazoline-6-sulfonamide], which IC50 ([6]; CPM Assay, IC50 (CI95) LdNMT) is on record?
Answer: 0.33 µM

Question: What does the source list for `CN(C)CCCN(C)c1nc(N(C)CCC#N)c2ccccc2n1` [Compound 4, 3-((2-((3-(Dimethylamino)propyl)(methyl)amino)quinazolin-4-yl)(methyl)amino)propanenitrile]?
Answer: BMDM TC50 [1]: >100 µM; Alamar Blue Assay nAUC [1]: 1.17

Question: With `CN1CCC(N(C)c2nc(N(C)CCC#N)c3sc(C(C)(C)C)cc3n2)C1` (stereo not shown) [Compound 52, 3-((6-(tert-Butyl)-2-(methyl(1-methylpyrrolidin-3-yl)amino)thieno[3,2-d]pyrimidin-4-yl)(methyl)amino)propanenitrile] as the compound, how does the “BMDM TC50” value [1] read?
Answer: >40 µM

Question: Which “BMDM TC50” value [1] does the source give for `CN(C)CCCN(C)c1nc(N(C)CCC#N)c2sc(C(C)(C)C)cc2n1` [Compound 51, 3-((6-(tert-Butyl)-2-((3-(dimethylamino)propyl)(methyl)amino)thieno[3,2-d]pyrimidin-4-yl)(methyl)amino)propanenitrile] here?
Answer: 27.3 (24.1-31.0) μM
